# Data published in patent US6001353A, “20α-alpha-hydroxy steroid dehydrogenase related material and methods” (priority 1997, dated 1999).
# T1: recombinant 20α-HSD (Rattus norvegicus, UniProt P51652)
# T1 sequence (P51652 1-323): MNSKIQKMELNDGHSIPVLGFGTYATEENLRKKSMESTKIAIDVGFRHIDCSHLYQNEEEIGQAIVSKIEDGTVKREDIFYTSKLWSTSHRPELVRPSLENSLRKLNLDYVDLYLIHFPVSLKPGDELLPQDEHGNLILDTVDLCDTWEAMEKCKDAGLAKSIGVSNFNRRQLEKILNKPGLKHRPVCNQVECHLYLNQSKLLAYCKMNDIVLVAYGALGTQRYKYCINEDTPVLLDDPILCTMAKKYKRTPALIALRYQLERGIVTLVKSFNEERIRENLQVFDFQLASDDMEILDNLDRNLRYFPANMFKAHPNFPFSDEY
# B1: recombinant 20α-HSD (Rattus norvegicus) (protein)
# chain: T1 sequence (P51652 1-323)
# notes: a DNA fragment of 1.2 Kb containing the entire coding region of 20α-HSD; GST (E. coli preparation only; removed with thrombin) (N, cleaved yes); made in house; host or cells: E. coli DH5α (pGEX-4T-2) and Sf-9 insect cells (baculovirus, pBlueBacIII)
# B2: recombinant 20α-HSD expressed in Sf-9 cells: rat 20α-HSD expressed in baculovirus-infected Sf-9 insect cells and purified (protein, UniProt P51652 1-323, looked up)
# Aldo-keto reductase family 1 …: T1 sequence (P51652 1-323)
# modifications: expressed in baculovirus Sf-9 cells
# notes: rat 20α-HSD expressed in baculovirus-infected Sf-9 insect cells and purified
# B3: recombinant 20α-HSD expressed in E. coli: rat 20α-HSD expressed as GST fusion in E. coli DH5α, thrombin-cleaved and purified (protein, UniProt P51652 1-323, looked up)
# Aldo-keto reductase family 1 …: T1 sequence (P51652 1-323)
# modifications: expressed in E. coli; GST tag thrombin-cleaved
# notes: rat 20α-HSD expressed as GST fusion in E. coli DH5α, thrombin-cleaved and purified
# B4: prolactin (protein, UniProt P01240 31-229, looked up)
# Prolactin: TPVCPNGPGNCQVSLRDLFDRAVMVSHYIHNLSSEMFNEFDKRYAQGKGFITMALNSCHTSSLPTPEDKEQAQQTHHEVLMSLILGLLRSWNDPLYHLVTEVRGMKGVPDAILSRAIEIEEENKRLLEGMEMIFGQVIPGAKETEPYPVWSGLPSLQTKDEDARHSAFYNLLHCLRRDSSKIDTYLKLLNCRIIYNNNC
# notes: prolactin (NIADDK oPRL-18)
# Key:
# [1] = target: T1, recombinant 20α-HSD; experiment: Steady state kinetic constants (Lineweaver-Burk); assay type: biochemical; parameters: a DNA fragment of 1.2 Kb containing the entire coding region of 20α-HSD; GST (E. coli preparation only; removed with thrombin) (N, cleaved yes); made in house; host or cells: E. coli DH5α (pGEX-4T-2) and Sf-9 insect cells (baculovirus, pBlueBacIII); conditions: for concentration at which enzyme activity reached saturation / maximal activity: bacterially expressed enzyme, other reactant fixed (NADP 1 mM or 20α-hydroxyprogesterone 100 μM)
# Text: The data were transformed into a reciprocal Lineweaver-Burk plot to calculate the Km and maximum velocity (Vmax) values.
# [2] = target: T1, recombinant 20α-HSD; experiment: Substrate specificity, oxidation/reduction of steroid substrates, spectrophotometric; assay type: biochemical; parameters: a DNA fragment of 1.2 Kb containing the entire coding region of 20α-HSD; GST (E. coli preparation only; removed with thrombin) (N, cleaved yes); made in house; host or cells: E. coli DH5α (pGEX-4T-2) and Sf-9 insect cells (baculovirus, pBlueBacIII); conditions: for Recombinant 20α HSD activity, expressed in E. coli: enzyme expressed in E. coli; for Recombinant 20α HSD activity, expressed in E. coli / Recombinant 20α HSD activity, expressed in Sf-9 cells: spectrophotometric; for Recombinant 20α HSD activity, expressed in Sf-9 cells: enzyme expressed in Sf-9 cells
# Protocol: (§1) Enzyme activity of the recombinant 20α-HSD was determined by the rate of conversion of [1-2^3 H]-20α-hydroxy-pregn-4-ene-3-one (20α-hydroxprogesterone) to [1,2^3 H]progesterone in the presence of NADPH as described by Jones & Hsueh [J. Biol. Chem. 256:1248-1254 (1981)]. Enzyme activity was measured in this manner due to the fact that in an in vitro setting the reaction may be reversed, i.e. conversion of 20α-hydroxyprogesterone to progesterone. The assay mixtures (0.05 ml) contained 100 μM [1,2^3 H]hydroxyprogesterone [Dupont-New England Nuclear Research Products, Boston Mass.] […] Following incubation at 37° C. for 30 minutes, the [^3 H]progesterone content of each sample was determined after isolation by thin layer chromatography isolation. One unit of enzyme activity is defined as that amount of enzyme catalyzing the formation of 1 nmol of [^3 H]progesterone/minute from [1,2^3 H]hydroxyprogesterone. Specific activity is expressed as units/min/mg protein. The protein concentration was determined by the Bradford method using bovine serum albumin [Sigma Chemical Co, St. Louis, Mo.] as the standard [Bradford, Anal. Biochem. 72:248-254 (1976)]. […] Acta. 799:51-58 (1984); Noda et al., Biochim Biophys. Acta. 1079:112-118 (1991)].
# To determine substrate specificity of recombinant 20α-HSD, the oxidation/reduction of several steroid substrates was also studied. […] Acta. 799:51-58 (1984); Noda et al., Biochim Biophys. Acta. 1079:112-118 (1991)]. […] However, compared to 20α-hydroxyprogesterone, 20α-HSD activity toward 17α-hydroxyprogesterone was lower, and its activity with progesterone was relatively higher.
# The enzyme activity was measured spectrophotometrically. The data are expressed as the mean of duplicate determinations from three separate experiments. ND, not detected.
# [3] = target: T1, recombinant 20α-HSD; experiment: Aldo-keto (aldose/aldehyde) reductase activity, spectrophotometric NADPH oxidation at 340 nm; assay type: biochemical; parameters: a DNA fragment of 1.2 Kb containing the entire coding region of 20α-HSD; GST (E. coli preparation only; removed with thrombin) (N, cleaved yes); made in house; host or cells: E. coli DH5α (pGEX-4T-2) and Sf-9 insect cells (baculovirus, pBlueBacIII); conditions: for activity relative to that observed with 20α-hydroxyprogesterone: maximal activity among aldose/aldehyde reductase substrates; for reduction of substrate by 20α-HSD (in words): purified recombinant 20α-HSD proteins
# Protocol: Aldo-keto reductase activity of the recombinant 20α-HSD was assayed spectrophotometrically by measuring the rate of oxidation of NADPH at 340 nm at 37° C. using a saturating concentration of benzaldehyde, 2-nitrobenzaldehyde, D,L -glyceraldehyde methylgloxal, 9,10-phenanthrequinone or ^D -galactose [Azhar et al., Biochemistry 26:7047-7057 (1987)].
# [4] = substrate: NC(=O)c1ccc[n+]([C@@H]2O[C@H](COP(=O)([O-])OP(=O)(O)OC[C@H]3O[C@@H](n4cnc5c(N)ncnc54)[C@H](OP(=O)(O)O)[C@@H]3O)[C@@H](O)[C@H]2O)c1; experiment: purified protein, by the assay type
# [5] = substrate: C[C@H](O)[C@H]1CC[C@H]2[C@@H]3CCC4=CC(=O)CC[C@]4(C)[C@H]3CC[C@]12C; experiment: Steady state kinetic constants (Lineweaver-Burk); assay type: biochemical, rat
# [6] = target: T1, recombinant 20α-HSD; experiment: 20α-HSD enzyme activity: conversion of [3H]20α-hydroxyprogesterone to [3H]progesterone; assay type: biochemical; parameters: a DNA fragment of 1.2 Kb containing the entire coding region of 20α-HSD; GST (E. coli preparation only; removed with thrombin) (N, cleaved yes); made in house; host or cells: E. coli DH5α (pGEX-4T-2) and Sf-9 insect cells (baculovirus, pBlueBacIII); conditions: for Mean Specific Activity ± SE: purified recombinant enzyme, Table 3
# Protocol: as §1
# [7] = system: 20α-HSD mRNA; experiment: Northern blot of corpus luteum 20α-HSD mRNA in hypophysectomized pregnant rats; assay type: in vivo, rat; conditions: rats hypophysectomized day 3, 125 μg twice daily, tissue on day 7
# Protocol: For these studies, Holtzman pregnant rats were hypophysectomized on day 3 and treated with either prolactin (NIADDK oPRL-18, 125 μg, twice daily) or with vehicle (control). On day 7, corpus luteum and various other tissues (brain, decidua, ovary, and uterus) were obtained for analysis.
# Total RNA from the harvested tissues was isolated by the method of Chomzynski and Sacchi [Anal. Biochem. 162:156-159 (1984)] and equal aliquots (20 μg) were electrophoresized and transferred to nylon membranes, or slot blotted onto Genescreen (DuPont, Wilmington, Del.) membrane. RNA was prehybridized for 16 hours at 42° C. in 40% formamide, 6×SSC, 5×Denhardt's, 20 mM NaH2 PO4, 0.2% SDS and 100 μg/ml salmon sperm DNA. Hybridization was completed in the same solution with the addition of ^32 P-labeled rat 20α-HSD cDNA (10^6 cpm/ml) at 42° C. for 12-16 hours. Blots were washed twice in 05.×SSC and 0.1% SDS (15 minutes, room temperature), twice in 0.2×SSC and 0.1% SDS (15 minutes, 42° C.), twice in 0.2×SSC and 0.1% SDS (15 minutes, 56° C.) and twice in 01.×SSC and 0.1% SDS (15 minutes, 56° C.).
# [8] = other: enzyme expressed in E. coli, other reactant fixed (NADP 1 mM or 20α-hydroxyprogesterone 100 μM)
# [9] = other: enzyme expressed in Sf-9 cells (baculovirus)
molecule,measurement,setting,value
"C[C@H](O)[C@H]1CC[C@H]2[C@@H]3CCC4=CC(=O)CC[C@]4(C)[C@H]3CC[C@]12C [20α-Hydroxyprogesterone, 20α-hydroxy-pregn-4-ene-3-one]",concentration at which enzyme activity reached saturation / maximal activity,[1],around 10 μM
same,"Recombinant 20α HSD activity, expressed in E. coli",[2],321 nmol/min/mg protein
same,"Recombinant 20α HSD activity, expressed in Sf-9 cells",[2],250 nmol/min/mg protein
"O=CC(O)CO (racemic) [D,L -Glyceraldehyde]",activity relative to that observed with 20α-hydroxyprogesterone,[3],approximately a third
same,reduction of substrate by 20α-HSD (in words),[3],very efficiently
O=Cc1ccccc1 [Benzaldehyde],activity relative to that observed with 20α-hydroxyprogesterone,[3],approximately a third
same,reduction of substrate by 20α-HSD (in words),[3],very efficiently
NC(=O)c1ccc[n+]([C@@H]2O[C@H](COP(=O)([O-])OP(=O)(O)OC[C@H]3O[C@@H](n4cnc5c(N)ncnc54)[C@H](OP(=O)(O)O)[C@@H]3O)[C@@H](O)[C@H]2O)c1 [NADP],concentration at which enzyme activity reached saturation / maximal activity,[1],about 100 μM
C[C@]12C[C@H](O)[C@H]3[C@@H](CCC4=CC(=O)CC[C@@]43C)[C@@H]1CC[C@@H]2C(=O)CO [Corticosterone],action of recombinant 20α-HSD on substrate (in words),[2],did not act on
O=Cc1ccc([N+](=O)[O-])cc1 [4-Nitrobenzaldehyde],reduction of substrate by 20α-HSD (in words),[3],very efficiently
CC(=O)[C@H]1CC[C@H]2[C@@H]3CCC4=CC(=O)CC[C@]4(C)[C@H]3CC[C@]12C [Progesterone],"Recombinant 20α HSD activity, expressed in E. coli",[2],459 nmol/min/mg protein
same,"Recombinant 20α HSD activity, expressed in Sf-9 cells",[2],352 nmol/min/mg protein
C[C@]12CCC(=O)C[C@@H]1CC[C@@H]1[C@@H]2CC[C@]2(C)[C@@H](O)CC[C@@H]12 [5α-dihydrotestosterone],action of recombinant 20α-HSD on substrate (in words),[2],did not act on
CC(=O)[C@@]1(O)CC[C@H]2[C@@H]3CCC4=CC(=O)CC[C@]4(C)[C@H]3CC[C@@]21C [17α-Hydroxyprogesterone],"Recombinant 20α HSD activity, expressed in E. coli",[2],97 nmol/min/mg protein
same,"Recombinant 20α HSD activity, expressed in Sf-9 cells",[2],85 nmol/min/mg protein
B1,Km,[4]; [8],9.5 µM
same,Km,[4]; [9],9.6 µM
same,Km,[5]; [8],5.9 µM
same,Km,[5]; [9],5.8 µM
B2,Mean Specific Activity ± SE,[6],259 ± 36 nmol/min - mg protein
B3,Vmax values higher than those of 20α-HSD expressed in insect cells,[1]; similar assay conditions,20-30%
same,average specific activity of the purified preparations,[6]; purified enzyme from bacterial expression system,332 ±47 nmol/min/mg protein
same,Mean Specific Activity ± SE,[6],332 ± 47 nmol/min - mg protein
B4,expression of 20α-HSD mRNA in corpora lutea,[7],markedly reduced
